Patent US5488149A, “Substituted amic acid derivatives” (Banyu Pharmaceutical Co., Ltd., priority 1993, dated 1996)

Molecular target: T1, squalene synthase (Homo sapiens, UniProt P37268)
T1 construct: A microsome fraction was prepared from human-hepatoma(Hep G2) cells; endogenous in cells; host or cells: Hep G2 (human hepatoma) cells, washed microsome fraction
T1 sequence (P37268 1-417): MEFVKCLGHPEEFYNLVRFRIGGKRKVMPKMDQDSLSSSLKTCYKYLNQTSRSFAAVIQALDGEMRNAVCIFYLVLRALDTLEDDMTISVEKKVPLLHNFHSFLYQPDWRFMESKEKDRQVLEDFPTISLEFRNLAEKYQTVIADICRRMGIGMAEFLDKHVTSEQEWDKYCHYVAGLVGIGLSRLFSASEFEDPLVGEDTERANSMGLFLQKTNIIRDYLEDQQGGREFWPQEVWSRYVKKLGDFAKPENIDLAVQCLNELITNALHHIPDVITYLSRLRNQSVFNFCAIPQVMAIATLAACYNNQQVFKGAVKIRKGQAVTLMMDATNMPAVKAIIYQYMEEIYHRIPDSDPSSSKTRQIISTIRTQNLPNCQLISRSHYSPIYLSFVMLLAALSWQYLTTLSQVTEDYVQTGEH
Assay: Inhibitory activities against squalene synthase
Assay type: biochemical
Conditions: microsome fraction from human hepatoma (Hep G2) cells; 10 μM [3H]-farnesyl pyrophosphate; pH 7.4; 37° C., 20 minutes; read-out: 50% inhibitory concentration against squalene synthase activity (IC50)
Description: Inhibitory activities against squalene synthase (1) Preparation of a microsome fraction A microsome fraction was prepared from human-hepatoma(Hep G2) cells by the method of Shechter et al disclosed in J. Biol. Chem., 267, 8628 (1992). Namely, Hep G2 cells were homogenized in the presence of a 0.3M sucrose-1 mM DTT-1 mM EDTA-10 mM Hepes buffer solution (pH 7.4) and various protease inhibitors, and subjected to centrifugal separation at 2000×g for 5 minutes and 10000×g for 15 minutes. The obtained supernatant was further subjected to centrifugal separation at 105000×g for 60 minutes, whereupon the precipitated residue was obtained. This precipitated residue was suspended in the above buffer solution containing various protease inhibitors, and the suspension was further subjected to centrifugal separation at 105000×g for 30 minutes to wash the precipitated residue. This washing operation was repeated three times. The finally obtained precipitated residue was taken as a microsome fraction, which was suspended in the above buffer solution containing no such various protease inhibitors, and the suspension was used for measuring the enzyme activities. (2) Method for measuring squalene synthase activities The enzymatic reaction of the squalene synthase was conducted in accordance with the method of Shechter et al disclosed in J. Biol. Chem., 267, 8628 (1992). […] Biochem., 203, 310 (1992). […] 50% inhibitory concentration against squalene synthase activity

Row | SMILES | IC50
1 | C[C@@H](NC(=O)CC(CC(=O)O)C(=O)O)[C@H](Cc1ccc2ccccc2c1)c1ccc(-c2ccccc2)cc1 (relative stereo) [Example 32, N-{(1RS, 2RS)-2-(4-Biphenylyl)-1-methyl-3-(2-naphthyl)propyl}carbamoylmethylsuccinic acid] | 4.7 nM
2 | C[C@@H](NC(=O)CC(CC(=O)O)C(=O)O)[C@H](Cc1ccc(Cl)cc1)c1ccc(-c2ccccc2)c(F)c1 (relative stereo) [Example 35, N-{(1RS, 2RS)-3-(4-Chlorophenyl)-2-(2-fluoro-4-biphenylyl)-1-methylpropyl}carbamoylmethylsuccinic acid] | 5.4 nM
3 | C[C@@H](NC(=O)CC(CC(=O)O)C(=O)O)[C@@H](/C=C/c1ccc2ccccc2c1)Cc1ccc(Cl)c(Cl)c1 (relative stereo) [Example 102, N-((1RS, 2RS, 3E)-2-(3,4-dichlorobenzyl)-1-methyl-4-(2-naphthyl)-3-butenyl)carbamoylmethylsuccinic acid] | 1.7 nM
4 | CC(CC(=O)O)CC(=O)N[C@H](C)[C@@H](/C=C/c1ccc2ccccc2c1)Cc1ccc(Cl)c(Cl)c1 (relative stereo) [Example 112, 4-{(1RS, 2RS, 3E)-2-(3,4-dichlorobenzyl)-1-1-methyl-4-(2-naphthyl)-3-butenylcarbamoyl}-3-methylbutanoic acid] | 3.1 nM
5 | C[C@H](NC(=O)C[C@H](CC(=O)O)C(=O)O)[C@@H](Cc1ccc(Cl)cc1)c1ccc(-c2ccccc2)cc1 [Example 46 (2R-form), (2R)-2-[N-{(1S, 2S)-2-(4-biphenylyl)-3-(4-chlorophenyl)-1-methylpropyl} -carbamoylmethyl]succinic acid] | 3.2 nM
6 | C[C@@H]([C@@H](Cc1ccc(Cl)c(Cl)c1)c1ccc(-c2ccccc2)cc1)N(C)C(=O)C[C@@H](CC(=O)O)C(=O)O [Example 49, (2S)-2-[N-{(1S, 2S)-2-(4-Biphenylyl)-3-(3, 4dichlorophenyl) -1-methylpropyl}-N-methylcarbamoylmethyl]succinic acid] | 3 nM
7 | C[C@H](NC(=O)CC/C=C/C(=O)O)[C@@H](Cc1ccc(Cl)c(Cl)c1)c1ccc(-c2ccccc2)c(F)c1 [Example 70, (E)-5-[N-{(1S, 2S)-3-(3,4-Dichlorophenyl)-2-(2-fluoro-4-biphenylyl)-1-methylpropyl}carbamoyl]-2-pentenoic acid] | 1.4 nM
8 | C[C@H](NC(=O)C[C@@H](CC(=O)O)C(=O)O)[C@@H](Cc1ccc(Cl)c(Cl)c1)OC(=O)c1ccc2ccccc2c1 [Example 92, (2S)-2-[N-{(1S, 2R)-3-(3,4-dichlorophenyl)-1-methyl-2-(2-naphthoyloxy)propyl}carbamoylmethyl]succinic acid] | 0.5 nM
